Peptide text beside a SMILES is read from it.
Legend:
anti-β1EC2-antibodies = assay: Free anti-β1EC2-titers by ELISA, prevention-study; assay type: in vivo, Lewis/CrlBR rats; conditions: 1.0 mg/kg i.v. monthly
Method: For treatment groups (a), (b), and (f) in total n = 38 non-immunised rats were injected with 0.9% NaCl and treated in parallel (“negative” controls). Blood was taken at regular intervals; rat-IgG was prepared by caprylic acid precipitation and assayed for reactivity by ELISA or competition-ELISA against linear peptides corresponding to the human β1EC2-sequence (AA199-223)[12], and by immuno-fluorescence microscopy with human embryonic kidney (HEK)293 cells stably expressing 0.4 pmol β1-AR/mg membrane protein (HEKβ1-cells). Specificity of the anti-β1EC2-abs was confirmed by co-localisation experiments using previously characterised N-terminal rabbit anti-β1-abs. Bound antibodies were detected with appropriate species-specific secondary antibodies (Dianova, Hamburg, Germany; anti-rabbit-, or anti-rat-Fab2, conjugated to Cy2 or Cy3). Calibrated rat-IgG (Dianova) served to quantify specific IgG-antibodies.
Fig 2 Study protocol and cardioprotection with cyclic β1EC2-peptides. Flow charts of the (A) prevention- and (E) therapy-study with β1EC2-mimicking peptides in the rat. Numbers given refer to animal-numbers in the respective study-groups. Immunisation with β1EC2/GST-FP (or 0.9% NaCl for controls) was started at t = 0. […] Titers were measured before and 24h after CP-injection. […] For better readability error-bars are not shown in the graph. […]

CD4+ T-cells = assay: Recall-assay with splenic CD4+ T-cells; assay type: cell-based, Lewis/CrlBR rats; conditions: 1.0 μg/ml β1EC2-CP; T-cells from spleens of treated and untreated rats; [3H]-thymidine (Fig. 5B-D)
Method: (a) Recall-assays with T-cells from spleens of immunised untreated vs. β1EC2-CP-treated animals were conducted as described in [60]. In brief, to purify CD4^+ T-cells from the splenic cell preparations, B-cells and CD8^+ T-cells were depleted by commercially available magnetic beads (MACS, Miltenyi Biotec, Bergisch-Gladbach, Germany) yielding a purity >85%. 1x10^5 of the purified CD4^+ T-cells were then co-incubated in 96-well plates with 1x10^6 irradiated thymic antigen presenting cells (prepared from a younger rat). Reagents added in the different assays were 1.0 μg/ml β1EC2-CP, 1.0 μg/ml tuberculin purified protein derivative (PPD, internal control), 1.0 μg/ml glutathion-S-transferase (GST), as well as 1.0 and 0.1 μg/ml GST/β1EC2-fusion proteins (FP), respectively. Measured T-cell reactivities were normalised to medium. After 48 h of incubation the cells were pulsed with 1.25 μCi/well [^3H]-thymidine and further incubated for 16 h before the cells were harvested; the DNA-incorporated radioactivity was measured using a beta-plate counter.
Fig 5 Immunology of cyclic β1EC2-peptides: fate of β1EC2-specific T- and B-cells. (A) Titer-course of anti-β1EC2-abs in β1EC2-CP-treated rats during the first 6 months of the prevention-study before and 24h after cyclopeptide-injection. […] For better readability error-bars are not shown in the graph. […]

SMILES: CC(C)[C@@H]1NC(=O)[C@H](Cc2ccccc2)NC(=O)[C@H](CC(=O)O)NC(=O)[C@H](CS)NC(=O)[C@H](CS)NC(=O)[C@H](CCCCN)NC(=O)[C@@H]2CCCN2C(=O)[C@H](CC(=O)O)NC(=O)[C@H](CC(N)=O)NC(=O)[C@H](Cc2ccc(O)cc2)NC(=O)[C@H](CS)NC(=O)[C@H](CCCNC(=N)N)NC(=O)[C@H](CCCNC(=N)N)NC(=O)[C@H](C)NC(=O)[C@H](CCC(=O)O)NC(=O)[C@H](CC(=O)O)NC(=O)[C@H](CO)NC(=O)[C@H](CCC(=O)O)NC(=O)[C@H](C)NC(=O)[C@H](CCCNC(=N)N)NC(=O)[C@H](C)NC(=O)[C@H](CCC(N)=O)NC(=O)CNC(=O)[C@H](CCCNC(=N)N)NC(=O)[C@H](CC(N)=O)NC(=O)[C@H]([C@@H](C)O)NC1=O [β1EC2-CP] (cyclo(AESDEARRCYNDPKCCDFVTNRGQAR))
- reduction in free anti-β1EC2-abs vs. initial values (anti-β1EC2-antibodies; after 5 injections, ELISA (Fig. 2B)): > 80%
- anti-β1EC2-titers in % of the initial values (anti-β1EC2-antibodies; after 9–10 injections, despite monthly antigen-boosts (Fig. 2B)): ~10%
- in vitro recall response of purified CD4+ T-cells, in words (CD4+ T-cells): clearly responded to the FP but not to β1EC2-CP

— publication PMC4336331, “Novel Receptor-Derived Cyclopeptides to Treat Heart Failure Caused by Anti-β1-Adrenoceptor Antibodies in a Human-Analogous Rat Model” (PLoS ONE, 2015)
